The values below come from US7332489B2, “Methods and compositions of novel triazine compounds” (Reddy US Therapeutics, Inc., priority 2003, dated 2008).

SMILES strings stand for the structures. Where a name gives a salt, the structure may show the parent alone. Read-outs that look alike come from different tables or passages of the source.

One series has as its system TNF-α induced IL-6. Kind of series: TNF-α-induced IL-6 production determined by IL-6 ELISA. The class given is cell-based. As to conditions: for Inflammation Data (result in words): concentration not given; for activity at 10 µM / inhibition at 10 µM: Homo sapiens; for % IL6 production compare to TNF stimulation of IL6 (100%), HAEC, IL6, @ 5 uM: compound 5 uM (bracketed value); for % IL6 production compare to TNF stimulation of IL6 (100%), Compds tested @ 10 μM HAEC, IL6: Table 7, 10 μM compound. Summed up: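 Human aortic endothelial cells grown to ≥90% confluence, then treated with compounds and stimuli in serum-free medium with 0.2% albumin. Secreted IL-6 in collected media measured by sandwich ELISA (2 ug/ml capture, 200 ng/ml biotinylated detection antibody, streptavidin-HRP), read at 450 nm.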
Background: An ELISA detects its analyte on a solid surface through an enzyme-linked reagent.

Series [1] concerns Human aortic smooth muscle cells. The series can be described thus: Smooth muscle cell proliferation assay / anti-proliferation assay (perlecan). As to conditions: for Proliferation Data (result in words): screens at 5 & 10 uM; for activity in anti-proliferation assay (Perlecan), in words: using the same activity scale used in Table 3.
Experimental: Human aortic smooth muscle cells (Clonetics) were used. Cells were grown in basal medium containing 5% fetal bovine serum supplemented with growth factors, basic fibroblast growth factor, epidermal growth factor and insulin. […] The cells were then serum starved for 24 h to induce quiescence. Fresh growth medium containing no compound or 10 μM compound was then added and further incubated for 24 h. Cell number was determined by using a cell proliferation assay kit (Celltiter96 AQueous from Promega).
The mark [2] stands for this setting: Homo sapiens, read-out: Activity (note 1), anti-proliferation assay (perlecan).
Where [3] appears, read: 24 h, Table 5, first part, class = % of control IL6 production, read-out: Inhibition of TNF-induced IL6 production.
Where [4] appears, read: Homo sapiens, read-out: Avg IC-50, anti-proliferation assay (perlecan).
[5] abbreviates: 24 h, read-out: Inhibition of TNF-induced IL6 production, Table 7, first part.
Setting [6] is: 24 h, read-out: Inhibition of TNF-induced IL6 production, Table 7, second part, column 1.
The mark [7] stands for this setting: 24 h, Table 7, first part, read-out: Inhibition of TNF-induced IL6 production.

With `COc1ccc(Nc2nc(NC3CCCCCC3)nc(N3CCCC3CO)n2)cc1Cl` (stereo not shown), the “Inflammation Data (result in words)” value in the series on TNF-α induced IL-6 is “Not Active”. For the same molecule, in series [1], the “Proliferation Data, cell morphology (rounding, blunting, morphology change)” value was “rounding” and the “Proliferation Data (result in words)” value was “Did not pass 5 & 10 uMscreens”. As for `COc1ccc(Nc2nc(NC3CCCCCC3)nc(N3CCN(C)CC3)n2)cc1Cl`, in the series with TNF-α induced IL-6 (5 uM), the “Inflammation Data, activity in words at 5 uM” value is reported as “not active” and the “Inflammation Data, cell death at 5 uM” value came out at 25%. The “Inflammation Data, cell death at 10 uM” value with TNF-α induced IL-6 (10 uM) is “total cell death”. In addition, in series [1], the “Proliferation Data, cell morphology (rounding, blunting, morphology change)” value is given as “blunting androunding” and the “Proliferation Data (result in words)” value is recorded as “Did not pass 5 & 10 uMscreens”. `CCc1occc(=O)c1Oc1nc(Nc2ccc(OC)c(Cl)c2)nc(NC2CCCCCC2)n1`: the “Inflammation Data, cell death at 10 uM” value in the series with TNF-α induced IL-6 (10 uM) is 20%. Also, in series [1], the “Proliferation Data (result in words)” value is recorded as “Not active at 5 & 10 uM”. As for `COc1ccc(Nc2nc(NC3CCCCCC3)nc(OC3CCN(C)CC3)n2)cc1Cl`, the “Inflammation Data, cell death at 10 uM” value in the series with TNF-α induced IL-6 (10 uM) is “total cell death”. Besides, the “Proliferation Data, cell morphology (rounding, blunting, morphology change)” value in series [1] is listed as “rounding at 5 & 10 uM”.

In the case of `COc1ccc(Nc2nc(NC3CCCCCC3)nc(NC3CCN(Cc4ccccc4)CC3)n2)cc1F`, the “Inflammation Data, cell death at 5 uM” value in the series on TNF-α induced IL-6 (5 uM) was found to be 25%. The “Inflammation Data, cell death at 10 uM” value in the series on TNF-α induced IL-6 (10 uM) is “total cell death”. In addition, in series [1], the “Proliferation Data, cell morphology (rounding, blunting, morphology change)” value is “cell bluntingat 3 uM and rounding at 5 uM”. Regarding `COc1ccc(Nc2nc(NC3CCCCCC3)nc(N(C)C3CCN(C)CC3)n2)cc1Br` [Compound 123, N-(3-Bromo-4-methoxy-phenyl)-N′-cycloheptyl-N″-methyl-N″-(1-methyl-piperidin-4-yl)-[1,3,5]triazine-2,4,6-triamine], the IC50 in series [1] (setting [2]) is greater than 7 µM. As for `CCN1CCC[C@H]1CNc1nc(Nc2ccc(OC)c(F)c2)nc(NC2CCCCCC2)n1` [Compound 139, N^2-cycloheptyl-N^4-((S)-1-ethyl-pyrrolidin-2-ylmethyl)-N^6-(3-fluoro-4-methoxyphenyl)-1,3,5-triazine-2,4,6-triamine], the activity at 10 µM in the series on TNF-α induced IL-6 (setting [3]) fell in the range of 0 to 25%. Besides, the IC50 in series [1] (setting [2]) lay in the range of 3 to 7 µM; in series [1] (setting [4]) it was 4 to 5 µM. For `CCN1CCC[C@@H]1CNc1nc(Nc2ccc(OC)c(F)c2)nc(NC2CCCCCC2)n1` [Compound 140, N^2-cycloheptyl-N^4-((R)-1-ethyl-pyrrolidin-2-ylmethyl)-N^6-(3-fluoro-4-methoxyphenyl)-1,3,5-triazine-2,4,6-triamine], the “% IL6 production compare to TNF stimulation of IL6 (100%), Compds tested @ 10 uM HAEC, IL6” value in the series with TNF-α induced IL-6 (10 uM compound, TNF stimulation = 100%) is recorded as 12.57%. Moreover, in the series with TNF-α induced IL-6 (setting [3]), the activity at 10 µM was in the range of 0 to 25%. Further, the IC50 in series [1] (setting [2]) lay in the range of 3 to 7 µM; in series [1] (setting [4]), 4 to 5 µM. Take `COc1ccc(Nc2nc(NC3CCCCCC3)nc(N(C)C3CCN(C)CC3)n2)cc1F` [Compound 160, N^2-cycloheptyl-N^4-(3-fluoro-4-methoxyphenyl)-N^6-methyl-N^6-(1-methyl-piperidin-4-yl)-1,3,5-triazine-2,4,6-triamine, hydrogen chloride salt]: the activity at 10 µM with TNF-α induced IL-6 (24 h, read-out: % IL6 production compare to TNF stimulation of IL6 (100%), Compds tested @ 10 uM HAEC, IL6) is 1%; in the series with TNF-α induced IL-6 (24 h, read-out: Inhibition of TNF-induced IL6 production), 0 to 25%. For the same molecule, the IC50 was in the range of 3 to 7 µM in series [1] (read-out: Activity (note 1), anti-proliferation assay (perlecan)) and 4 to 5 µM in series [1] (read-out: Avg IC-50, anti-proliferation assay (perlecan)). As to `COc1ccc(Nc2nc(NC3CCCCCC3)nc(N(C)C3CCN(C)CC3)n2)cc1F` [Compound 167, N^2-cycloheptyl-N^4-(3-fluoro-4-methoxy-phenyl)-N^6-methyl-N^6-(1-methyl-piperidin-4-yl)-1,3,5-triazine-2,4,6-triamine maleate salt], the “% IL6 production compare to TNF stimulation of IL6 (100%), HAEC, IL6, @ 5 uM” value (“% IL6 production compare … @ 5 uM” below) in the series on TNF-α induced IL-6 (TNF stimulated, maleate salt) is listed as 25%. Besides, in series [1] (read-out: Activity (note 1), anti-proliferation assay (perlecan), maleate salt), the IC50 is greater than 7 µM. `COc1ccc(Nc2nc(NC3CCCCCC3)nc(N(C)C3CCN(C)CC3)n2)cc1F` [Compound 168, N^2-cycloheptyl-N^4-(3-fluoro-4-methoxy-phenyl)-N^6-methyl-N^6-(1-methyl-piperidin-4-yl)-1,3,5-triazine-2,4,6-triamine citrate salt]: the “% IL6 production compare … @ 5 uM” value in the series on TNF-α induced IL-6 (TNF stimulated, citrate salt) is given as 40%. The “% IL6 production compare to TNF stimulation of IL6 (100%), Compds tested @ 10 uM HAEC, IL6” value with TNF-α induced IL-6 (TNF stimulated, compound 10 uM) is reported as “total cell death”. `COc1ccc(Nc2nc(NC3CCCCCC3)nc(N(C)C3CCN(C)CC3)n2)cc1F` [Compound 169, N^2-cycloheptyl-N^4-(3-fluoro-4-methoxy-phenyl)-N^6-methyl-N^6-(1-methyl-piperidin-4-yl)-1,3,5-triazine-2,4,6-triamine succinate salt]: the “% IL6 production compare … @ 5 uM” value with TNF-α induced IL-6 (TNF stimulated, succinate salt) worked out at 45%. For orientation: inhibition means the share of the control response that was lost under treatment. In the case of `COc1ccc(Nc2nc(NC3CCCCCC3)nc(N(C)C3CCN(C)CC3)n2)cc1F` [Compound 171, N-Cycloheptyl-N′-(3-fluoro-4-methoxy-phenyl)-N″-methyl-N″-(1-methyl-piperidin-4-yl)-[1,3,5]tri-azine-2,4,6-triamine], the results for the inhibition at 10 µM in the series on TNF-α induced IL-6 (setting [5]) and with TNF-α induced IL-6 (setting [6]) were 85 to 100% and 65 to 85%, respectively. Moreover, the “% IL6 production compare to TNF stimulation of IL6 (100%), Compds tested @ 10 μM HAEC, IL6” value in the series on TNF-α induced IL-6 (TNF stimulation = 100%) is 21%.

Take `CN1CCC(N(C)c2nc(Nc3ccc4ccccc4c3)nc(NC3CCCCCC3)n2)CC1` [Compound 172, N-Cycloheptyl-N′-methyl-N′-(1-methyl-piperidin-4-yl)-N″-naphthalen-2-yl-[1,3,5]tri-azine-2,4,6-triamine]: the inhibition at 10 µM lay in the range of 85 to 100% in the series on TNF-α induced IL-6 (setting [5]) and 65 to 85% with TNF-α induced IL-6 (setting [6]). Besides, the “% IL6 production compare to TNF stimulation of IL6 (100%), Compds tested @ 10 μM HAEC, IL6” value with TNF-α induced IL-6 (TNF stimulation = 100%) turned out to be 18%. Consider `COc1ccc(Nc2nc(N3CCOCC3)nc(N3CCN(Cc4ccccc4)CC3)n2)cc1` [Compound 173, [4-(4-Benzyl-piperazin-1-yl)-6-morpholin-4-yl-[1,3,5]tri-azin-2-yl]-(4-methoxy-phenyl)-amine], for which the inhibition at 10 µM in the series with TNF-α induced IL-6 (setting [7]) was 65 to 85%.

Regarding `c1ccc2cc(Nc3nc(NC4CCCCCC4)nc(N4CCOCC4)n3)ccc2c1` [Compound 174, N-Cycloheptyl-6-morpholin-4-yl-N′-naph-thalen-2-yl-[1,3,5]triazine-2,4-diamine], in the series with TNF-α induced IL-6 (setting [7]), the inhibition at 10 µM was in the range of 85 to 100%. On the same count and under the same terms, under `COc1ccc(Nc2nc(NC3CCCCCC3)nc(N3CCOCC3)n2)cc1F` [Compound 175, N-Cycloheptyl-N′-(3-fluoro-4-methoxy-phenyl)-6-morpholin-4-yl-[1,3,5]triazine-2,4-di-amine] stands 85 to 100%; under `c1ccc(Nc2nc(NC3CCCCCC3)nc(N3CCOCC3)n2)cc1` [Compound 176, N-Cycloheptyl-6-morpholin-4-yl-N′-phenyl-[1,3,5]tri-azine-2,4-diamine], 85 to 100%.

`COc1ccc(Nc2nc(NC3CCCCCC3)nc(N3CCOCC3)n2)cc1` [Compound 177, N-Cycloheptyl-N′-(4-methoxy-phenyl)-6-mor-pholin-4-yl-[1,3,5]triazine-2,4-diamine]: the inhibition at 10 µM in the series on TNF-α induced IL-6 (setting [7]) was in the range of 85 to 100%; in the series with TNF-α induced IL-6 (24 h, Table 7, second part, column 1, read-out: Inhibition of TNF-induced IL6 production), 65 to 85%.

`COc1ccc(Nc2nc(NC3CCCCCC3)nc(N(C)Cc3ccccc3)n2)cc1` [Compound 178, N-Benzyl-N′-cycloheptyl-N″-(4-methoxy-phenyl)-N-methyl-[1,3,5]triazine-2,4,6-tri-amine]: the inhibition at 10 µM in the series with TNF-α induced IL-6 (setting [7]) was in the range of 65 to 85%.

With `CN1CCC(N(C)c2nc(NCCC3OCCO3)nc(Nc3ccc4ccccc4c3)n2)CC1` [Compound 179, N-(2-[1,3]Dioxolan-2-yl-ethyl)-N′-methyl-N′-(1-meth-yl-piperidin-4-yl)-N″-naphthalen-2-yl-[1,3,5]tri-azine-2,4,6-triamine], the inhibition at 10 µM in the series with TNF-α induced IL-6 (setting [5]) is 65 to 85%; in the series on TNF-α induced IL-6 (setting [6]), 50 to 65%. For `COc1ccc(Nc2nc(NC3CCCCCC3)nc(N(C)C3CCN(C)CC3)n2)cc1F` [N^2-cycloheptyl-N^4-(3-fluoro-4-methoxyphenyl)-N^6-methyl-N^6-(1-methyl-piperidin-4-yl)-1,3,5-triazine-2,4,6-triamine], the “activity in anti-proliferation assay (Perlecan), in words” value in series [1] was “medium or moderate activity”. Same read-out and setting: in the case of `CN1CCC(N(C)c2nc(Nc3ccc4ccccc4c3)nc(NC3CCCCCC3)n2)CC1` [N^2-cycloheptyl-N^4-methyl-N^4-(1-methyl-piperidin-4-yl)-N^6-naphthalen-2-yl-1,3,5-triazine-2,4,6-triamine] it was “high activity”. Turning to `COc1ccc(Nc2nc(NC3CCCCCC3)nc(OC3CCCN(C(C)=O)C3)n2)cc1Cl` (stereo not shown) [drawing 1597], in the series with TNF-α induced IL-6 (10 uM), the “Inflammation Data, inhibition at 10 uM” value is “complete inhibition at 10 uM”. For the same molecule, in series [1], the “Proliferation Data (result in words)” value is reported as “Not active at 5 & 10 uM”. Regarding `COc1ccc(Nc2nc(NC3CCCCCC3)nc(OC(C)C)n2)cc1Cl` [drawing 1598], the inhibition at 10 µM with TNF-α induced IL-6 (10 uM, read-out: Inflammation Data, inhibition at 10 uM) was less than 25%. As for `COc1ccc(Nc2nc(NC3CCCCCC3)nc(OCC3CCCN3)n2)cc1Cl` (stereo not shown) [drawing 1599], the “Proliferation Data (result in words)” value in series [1] is on record as “Not active at 5 & 10 uM”.

`COc1ccc(Nc2nc(NC3CCCCCC3)nc(N3CCSCC3)n2)cc1Cl` [drawing 1604]: the “Inflammation Data (result in words)” value in the series with TNF-α induced IL-6 is “Not Active”.

For `COc1ccc(Nc2nc(NC3CCCCCC3)nc(Oc3ccccc3F)n2)cc1Cl` [drawing 1605], the “Inflammation Data (result in words)” value with TNF-α induced IL-6 is on record as “Not Active”.
